The results in this text go back to ChEMBL document CHEMBL5226354, “The Medicinal Chemistry and Therapeutic Potential of LRH-1 Modulators” (J Med Chem, 2021).

The IC50 is the midpoint of a concentration-inhibition curve. One may read the inhibition as the share of the control response that was lost under treatment. Lower therefore signals a weak effect.

Test [1] addresses T1, Nuclear receptor subfamily 5 group A member 2 (Homo sapiens, UniProt O00482). In words: Inhibition of full length LRH1 transfected in HEK293T cells incubated for 20 hrs by luciferase reporter assay. It counts as cell-based.
Test [2] addresses T1, Nuclear receptor subfamily 5 group A member 2. In words: Inhibition of full length LRH1 in HEK293T cells at 550 nM incubated for 20 hrs by luciferase reporter assay relative to control. It counts as cell-based.
Test [3] has the same target. Kind of test: Antagonist activity at human LRH-1.
For test [4] the target is unchanged. Kind of test: Inhibition of full length LRH1 in HEK293T cells at 10 uM incubated for 20 hrs by luciferase reporter assay relative to control. It counts as cell-based.
The target is the same in test [5]. Kind of test: Antagonist activity at human recombinant LRH-1 LBD ([…] to 541 residues).

T1 sequence (O00482 whole entry): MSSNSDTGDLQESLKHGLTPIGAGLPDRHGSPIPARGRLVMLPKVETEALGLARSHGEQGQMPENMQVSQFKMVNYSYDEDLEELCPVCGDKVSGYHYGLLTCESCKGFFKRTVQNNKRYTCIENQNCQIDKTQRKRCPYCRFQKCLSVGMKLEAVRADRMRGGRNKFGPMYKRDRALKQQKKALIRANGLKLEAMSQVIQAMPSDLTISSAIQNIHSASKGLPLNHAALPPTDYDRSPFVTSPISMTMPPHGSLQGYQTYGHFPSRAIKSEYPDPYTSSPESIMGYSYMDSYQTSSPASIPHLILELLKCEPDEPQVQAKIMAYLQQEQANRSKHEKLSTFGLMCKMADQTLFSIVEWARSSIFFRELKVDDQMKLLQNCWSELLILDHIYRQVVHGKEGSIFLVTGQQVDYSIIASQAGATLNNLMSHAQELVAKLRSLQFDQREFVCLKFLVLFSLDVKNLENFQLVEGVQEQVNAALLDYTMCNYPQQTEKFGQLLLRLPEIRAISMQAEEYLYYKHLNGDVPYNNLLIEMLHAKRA

With `O=c1cc(N2CCN(c3cccc(C(F)(F)F)c3)CC2)[nH]c(=O)n1C1CCCCC1`, in test [1], inhibition was half-maximal at 0.32 µM (IC50). In test [2], this compound came in with an inhibition of 40%.

For `Cc1nc(N(C)C)nc(-c2cccc(-c3ccn(CCN(C)C)n3)c2)c1C`, half-maximal inhibition in test [3] (IC50) required 6 µM.

With `O=c1cc(N2CCN(c3cccc(Cl)c3)CC2)[nH]c(=O)n1C1CCCCC1`, the IC50 in test [1] is 3.7 µM. The inhibition in test [4] stood at 64%.

The compound `CC(=O)c1cccc(-c2cccc(-c3ccn(CCN4CCOCC4)n3)c2)c1` had an IC50 in test [3] of 5 µM.

Take `O=C(c1ccc(OCCN2CCCCC2)cc1)c1c(-c2ccc(O)cc2)sc2c(C(=O)c3ccc(OCCN4CCCCC4)cc3)c(O)ccc12`: in test [5], the IC50 was 3.1 µM.
